Data on eleven compounds can be found in US20070208166A1, “Tao Kinase Modulators And Method Of Use” (Exelixis, Inc., priority 2003, published 2007).

pIC50: −log10 of the molar value.

What all share (assay type): biochemical
Test [1] addresses T1, KIAA 1361 (baculovirus expressed human KIAA 1361 kinase domain 2-322) (Homo sapiens, UniProt Q7L7X3).
T1 construct: human KIAA 1361 kinase domain 2-322; made in house
T1 sequence (Q7L7X3 2-322): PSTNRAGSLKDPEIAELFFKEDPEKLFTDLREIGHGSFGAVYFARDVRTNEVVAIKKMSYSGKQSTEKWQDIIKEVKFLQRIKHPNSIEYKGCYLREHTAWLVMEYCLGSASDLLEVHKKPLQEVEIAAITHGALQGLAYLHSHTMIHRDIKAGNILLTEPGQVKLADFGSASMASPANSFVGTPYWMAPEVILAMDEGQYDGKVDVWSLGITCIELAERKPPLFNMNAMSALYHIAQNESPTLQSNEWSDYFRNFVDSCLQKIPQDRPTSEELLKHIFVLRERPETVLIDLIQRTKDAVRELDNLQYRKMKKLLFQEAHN
As to the kind of experiment: KIAA 1361 Luciferase-Coupled Chemiluminescent Kinase assay (LCCA). The conditions noted are these: 2 μM ATP, 10 μM MBP, 12 nM KIAA 1361, 2 hours; read-out: KIAA1361 inhibition IC50. On the procedure:
(§1) Kinase activity and compound inhibition are investigated using one or more of the three assay formats described below. The ATP concentrations for each assay are selected to be close to the Michaelis-Menten constant (KM) for each individual kinase. Dose-response experiments are performed at 10 different inhibitor concentrations in a 384-well plate format. The data are fitted to four-parameter equation (2) below; where Y is the observed signal, X is the inhibitor concentration, Min is the background signal in the absence of enzyme (0% enzyme activity), Max is the signal in the absence of inhibitor (100% enzyme activity), IC50 is the inhibitor concentration at 50% enzyme inhibition and H represents the empirical Hill's slope to measure the cooperativity. Typically H is close to unity. Y=Min+(Max−Min)/(1+(X/IC50)ˆH) Equation (2) KIAA 1361 Assay: […]
(§2) KIAA 1361 biochemical activity was assessed using a Luciferase-Coupled Chemiluminescent Kinase assay (LCCA) format. Kinase activity was measured as the percent ATP remaining following the kinase reaction. Remaining ATP was detected by luciferase-luciferin-coupled chemiluminescence. Specifically, the reaction was initiated by mixing test compounds, 2 μM ATP, 10 μM MBP and 12 nM KIAA 1361 (baculovirus expressed human KIAA 1361 kinase domain 2-322) in a 20 uL assay buffer (20 mM Tris-HCL pH7.5, 10 mM MgCl2, 0.02% Triton X-100, 100 mM DTT, 2 mM MnCl2). The mixture is incubated at ambient temperature for 2 hours after which 20 uL luciferase-luciferin mix is added and the chemiluminescent signal read using a Wallac Victor^2 reader. The luciferase-luciferin mix consists of 50 mM HEPES, pH 7.8, 8.5 ug/mL oxalic acid (pH 7.8), 5 (or 50) mM DTT, 0.4% Triton X-100, 0.25 mg/mL coenzyme A, 63 uM AMP, 28 ug/mL luciferin and 40,000 units of light/mL luciferase.

The target of another test is T2, JIK (Homo sapiens, UniProt Q9H2K8).
T2 construct: 6 nM JIK (baculovirus expressed human KIAA 1361 kinase domain2-318); made in house
T2 sequence (Q9H2K8 2-318): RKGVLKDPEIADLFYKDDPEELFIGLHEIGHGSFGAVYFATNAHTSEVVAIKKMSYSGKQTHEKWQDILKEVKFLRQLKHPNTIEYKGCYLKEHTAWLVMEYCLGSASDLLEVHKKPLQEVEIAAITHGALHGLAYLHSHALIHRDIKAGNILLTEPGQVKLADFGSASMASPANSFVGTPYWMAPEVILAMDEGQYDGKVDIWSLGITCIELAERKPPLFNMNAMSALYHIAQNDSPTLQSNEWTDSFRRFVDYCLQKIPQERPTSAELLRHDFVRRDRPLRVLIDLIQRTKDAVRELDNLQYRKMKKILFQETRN
Description: JIK Luciferase-Coupled Chemiluminescent Kinase assay (LCCA). The conditions noted are these: 2 μM ATP, 10 μM MBP, 6 nM JIK, 2 hours; read-out: JIK inhibition IC50. On the procedure:
as §1
as §2, with “JIK biochemical” for “KIAA 1361 biochemical”, “and 6” for “and 12”, “nM JIK” for “nM KIAA 1361”, “kinase domain2-318)” for “kinase domain 2-322)”

The next test has as its target T3, TAO (Homo sapiens, UniProt Q9UL54).
T3 sequence (Q9UL54 1-1235): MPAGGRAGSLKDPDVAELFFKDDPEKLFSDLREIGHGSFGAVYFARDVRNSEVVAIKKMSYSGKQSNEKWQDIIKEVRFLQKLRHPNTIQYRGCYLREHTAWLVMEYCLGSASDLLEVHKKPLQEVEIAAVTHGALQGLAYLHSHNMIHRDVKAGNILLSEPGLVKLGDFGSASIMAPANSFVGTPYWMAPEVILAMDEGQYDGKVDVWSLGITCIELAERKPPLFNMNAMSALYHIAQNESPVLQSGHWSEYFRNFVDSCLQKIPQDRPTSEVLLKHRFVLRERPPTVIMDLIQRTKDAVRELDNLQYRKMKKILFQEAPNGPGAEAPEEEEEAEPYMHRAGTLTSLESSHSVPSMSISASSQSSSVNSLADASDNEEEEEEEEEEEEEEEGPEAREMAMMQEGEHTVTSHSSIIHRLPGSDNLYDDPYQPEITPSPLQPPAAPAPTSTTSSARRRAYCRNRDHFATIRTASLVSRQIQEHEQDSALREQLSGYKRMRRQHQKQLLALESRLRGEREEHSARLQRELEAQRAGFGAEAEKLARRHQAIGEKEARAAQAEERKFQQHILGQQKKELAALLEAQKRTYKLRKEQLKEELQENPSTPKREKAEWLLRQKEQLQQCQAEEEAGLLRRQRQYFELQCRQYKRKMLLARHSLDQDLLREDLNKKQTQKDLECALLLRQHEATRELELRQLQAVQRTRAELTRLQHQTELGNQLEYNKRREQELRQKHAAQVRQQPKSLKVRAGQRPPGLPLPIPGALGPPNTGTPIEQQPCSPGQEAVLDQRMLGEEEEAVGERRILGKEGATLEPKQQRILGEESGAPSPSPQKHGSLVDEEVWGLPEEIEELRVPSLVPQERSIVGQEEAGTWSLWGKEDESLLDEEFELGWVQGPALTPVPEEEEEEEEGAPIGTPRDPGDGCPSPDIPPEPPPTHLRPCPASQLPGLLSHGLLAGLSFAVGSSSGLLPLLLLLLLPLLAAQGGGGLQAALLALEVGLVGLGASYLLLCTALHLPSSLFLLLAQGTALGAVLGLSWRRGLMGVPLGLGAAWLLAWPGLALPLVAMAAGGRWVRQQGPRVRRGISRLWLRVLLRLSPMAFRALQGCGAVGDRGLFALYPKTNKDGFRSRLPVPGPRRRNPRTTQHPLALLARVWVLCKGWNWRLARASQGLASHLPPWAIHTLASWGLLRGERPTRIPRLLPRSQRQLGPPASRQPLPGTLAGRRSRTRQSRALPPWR
Description: TAO Luciferase-Coupled Chemiluminescent Kinase assay (LCCA). The conditions noted are these: 2 μM ATP, 10 μM MBP, 12 nM TAO, 2 hours; read-out: TAO inhibition IC50. On the procedure:
as §1
as §2, with “TAO biochemical” for “KIAA 1361 biochemical”, “nM TAO” for “nM KIAA 1361”, “mM […],” for “mM HEPES,”, “[…]” for “0.25 mg/mL”

By pIC50 is commonly meant −log10 of the IC50, conventionally taken in molar units.

As for `COc1cc2cc(C(=O)N[C@@H](Cc3c[nH]c4ccccc34)C(=O)NC3CCCc4ccccc43)[nH]c2cc1OC` (stereo partly drawn) [Entry 13, Nalpha-{[5,6-bis(methyloxy)-1H-indol-2-yl]carbonyl}-N-(1,2,3,4-tetrahydronaphthalen-1-yl)tryptophanamide], the pIC50 in test [1] was 6.30 to 7.30; on JIK, > 7.30; at TAO it was 5.30 to 6.30.
For `CCCCOc1ccc(C(=O)N[C@@H](Cc2c[nH]c3ccccc23)C(=O)NC2CCCc3ccccc32)cc1` (stereo partly drawn) [Entry 14, Nalpha-{[4-(butyloxy)phenyl]carbonyl}-N-(1,2,3,4-tetrahydronaphthalen-1-yl)tryptophanamide], in that order: 6.30 to 7.30, 6.30 to 7.30 and 5.30 to 6.30.
The corresponding values for `COc1ccc(/C=C/C(=O)N2Cc3[nH]cnc3CC2C(=O)NCCc2cccc(Cl)c2)cc1OC` (stereo not drawn) [Entry 15, 5-{(2E)-3-[3,4-bis(methyloxy)phenyl]prop-2-enoyl}-N-[2-(3-chlorophenyl)ethyl]-4,5,6,7-tetrahydro-3H-imidazol[4,5-c]pyridine-6-carboxamide] are 6.30 to 7.30, > 7.30 and 5.30 to 6.30.
In the case of `O=C(NC(C(=O)NC1CCCc2ccccc21)c1cccnc1)c1ccc(-n2cncn2)cc1` (stereo not drawn) [Entry 16, N-[2-oxo-1-pyridin-3-yl-2-(1,2,3,4-tetrahydronaphthalen-1-ylamino)ethyl]-4-(1H-1,2,4-triazol-1-yl)benzamide], the pIC50 (in test [1]; at JIK; at TAO) was 6.30 to 7.30 in each case.
In the case of `COc1ccc(/C=C/C(=O)N[C@@H](Cc2c[nH]c3ccccc23)C(=O)NC2CCCc3ccccc32)cc1OC` (stereo partly drawn) [Entry 17, Nalpha-{(2E)-3-[3,4-bis(methyloxy)phenyl]prop-2-enoyl}-N-(1,2,3,4-tetrahydronaphthalen-1-yl)tryptophanamide], the figures for the pIC50 (in test [1]; on JIK; on TAO) were 6.30 to 7.30, 6.30 to 7.30 and 5.30 to 6.30, respectively.
Take `CCCCOc1ccc(C(=O)NC(C)C(=O)NC2CCc3ccccc3C2)cc1` (stereo not drawn) [Entry 18, 4-(butyloxy)-N-[1-methyl-2-oxo-2-(1,2,3,4-tetrahydronaphthalen-2-ylamino)ethyl]benzamide]: the values for the pIC50 (in test [1]; at JIK; on TAO) were 6.30 to 7.30, 6.30 to 7.30 and 5.30 to 6.30, respectively.
With `CC(NC(=O)c1ccc(OCc2ccccc2)cc1)C(=O)NC1CCc2ccccc2C1` (stereo not drawn) [Entry 19, N-[1-methyl-2-oxo-2-(1,2,3,4-tetrahydronaphthalen-2-ylamino)ethyl]-4-[(phenylmethyl)oxy]benzamide], the negative logarithm of the IC50 (pIC50) in test [1] is 6.30 to 7.30; at JIK it was 6.30 to 7.30; on TAO, 5.30 to 6.30.
Turning to `Cc1cc(C(=O)NCC(=O)NC2CCCc3ccccc32)cc(C)c1OCc1ccccc1` (stereo not drawn) [Entry 20, 3,5-dimethyl-N-{2-oxo-2-(1,2,3,4-tetrahydronaphthalen-1-ylamino)ethyl]-4-[(phenylmethyl)oxy]benzamide], the pIC50 is 6.30 to 7.30 in test [1], 6.30 to 7.30 at JIK and 5.30 to 6.30 on TAO.
On to `CCCCOc1ccc(NC(=O)N[C@@H](COCc2ccccc2)C(=O)NCCc2ccccc2)cc1` [Entry 21, N˜2˜-({[4-(butyloxy)phenyl]amino}carbonyl)-N-(2-phenylethyl)-O-(phenylmethyl)serinamide], for which the negative-log IC50 (pIC50) in test [1] is 6.30 to 7.30; at JIK it was 6.30 to 7.30; at TAO it was < 5.30.
With `CCCCc1ccc(NC(=O)N2CCC[C@H]2C(=O)NCc2ccc(Cl)c(Cl)c2)cc1` [Entry 22, (2S)-N˜-1˜-(4-butylphenyl)-N˜2˜-[(3,4-dichlorophenyl)methyl]pyrrolidine-1,2-dicarboxamide], the negative-log IC50 (pIC50) was 6.30 to 7.30 in test [1], 6.30 to 7.30 at JIK and 5.30 to 6.30 at TAO.
Consider `COc1ccc2nc(NC(=O)CCCNC(=O)Cn3cnc4sc5c(c4c3=O)CCCC5)sc2c1` [Entry 23, N-[6-(methyloxy)-1,3-benzothiazol-2-yl]-4-{[(4-oxo-5,6,7,8-tetrahydro[1]benzothieno[2,3-d]pyrimidin-3(4H)-yl)acetyl]amino}butanamide], for which the negative logarithm of the IC50 (pIC50) is 6.30 to 7.30 in test [1], 6.30 to 7.30 on JIK and 5.30 to 6.30 at TAO.
